The results in this text go back to US10080366B2, “Agent for increasing sugar content in fruit” (RIKEN, priority 2012, dated 2018).

One assay relates to Lettuce (Great Lakes). The following applies: 10 g/L aqueous solution at intervals of one week; browning index 0-5, five plants. The text has this:
(§1) In general, calcium deficiency in lettuce and celery occurs from summer to fall. Heart rot symptom develops in lettuce, and change in color and blackening of new leaves develop in celery. In addition, tipburn may also occur in lettuce. A 10 g/L aqueous potassium hydrogen carbonate solution was applied at intervals of one week to lettuce and celery in which no symptom of calcium deficiency had yet developed, and whether or not the symptom became milder than that of an untreated group was observed. Five plants were subjected to each treatment, and the degree of the symptom of calcium deficiency was determined on the basis of the degree of browning of leaves at the harvest.
(§2) 0: no browning, 0.5: browning occurred only in very small portions on the edges of leaves, 1.0: browning occurred in portions on the edges of […], 2.0: browning occurred from edges of leaves to the inside, 3.0: the degree of browning was considerable, 5.0: the browning of leaves was remarkable. Degree of occurrence=(Index 5×the number of plants in which the corresponding blowing occurred+Index 3×the number of plants in which the corresponding blowing occurred+Index 2×the number of plants in which the corresponding blowing occurred+Index 1×the number of plants in which the corresponding blowing occurred+Index 0.5×the number of plants in which the corresponding blowing occurred)/5 plants

A further assay deals with Celery. The following applies: 10 g/L aqueous solution at intervals of one week; browning index 0-5, five plants.
Text: as §1, §2

For `O=C([O-])O.[K+]` [Potassium hydrogen carbonate, potassium hydrogen carbonate], the “Degree of occurrence of calcium deficiency” value in the assay with Lettuce (Great Lakes) is given as 0.2; in the assay with Celery it was 0.3.
